Experiment [1] addresses T1, Nurr1 (Homo sapiens, UniProt P43354).
T1 construct: Nurr1 (uniprot entry: hNURR1–P43354, residues 360–598); expressed in transfected cells; host or cells: HEK293T
Description: Gal4-Nurr1 hybrid reporter gene assay in HEK293T cells. The class given is cell-based. The conditions noted are these: HEK293T; mean ± SD; n≥3.

For a further experiment, the target named is T2, NBRE: Nurr1 monomer (Homo sapiens, UniProt P43354).
T2 construct: the activity of full-length human Nurr1 in cellular settings; host or cells: HEK293T
T2 sequence (P43354 whole entry): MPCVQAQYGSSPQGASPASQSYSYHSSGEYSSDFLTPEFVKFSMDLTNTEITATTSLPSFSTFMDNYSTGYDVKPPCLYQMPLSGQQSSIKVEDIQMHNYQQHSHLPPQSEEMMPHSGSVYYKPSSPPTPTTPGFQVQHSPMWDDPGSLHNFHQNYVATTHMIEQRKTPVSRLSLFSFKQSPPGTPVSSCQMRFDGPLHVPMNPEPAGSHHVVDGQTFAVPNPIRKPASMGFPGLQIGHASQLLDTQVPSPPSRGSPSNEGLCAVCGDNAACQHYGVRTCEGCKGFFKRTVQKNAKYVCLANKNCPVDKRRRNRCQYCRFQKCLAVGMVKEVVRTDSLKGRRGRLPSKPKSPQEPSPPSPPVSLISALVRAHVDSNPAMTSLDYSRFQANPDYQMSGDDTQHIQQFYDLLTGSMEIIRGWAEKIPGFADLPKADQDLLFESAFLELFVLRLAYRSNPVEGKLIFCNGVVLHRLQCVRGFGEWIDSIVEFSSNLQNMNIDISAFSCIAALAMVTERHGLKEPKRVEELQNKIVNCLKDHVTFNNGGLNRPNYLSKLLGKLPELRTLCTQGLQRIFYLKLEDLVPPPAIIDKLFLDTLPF
Description: Full-length Nurr1 reporter gene assay on NBRE response element. The format is cell-based. The conditions noted are these: full-length human Nurr1; HEK293T; mean ± SD.

The next experiment addresses T3, NurRE: Nurr1 homodimer (Homo sapiens, UniProt P43354).
T3 construct: the activity of full-length human Nurr1 in cellular settings; host or cells: HEK293T
In words: Full-length Nurr1 reporter gene assay on NurRE response element. The format is cell-based. The conditions noted are these: full-length human Nurr1; HEK293T; mean ± SD.

In experiment [2] the target is T4, DR5: Nurr1–RXRα heterodimer (Homo sapiens, UniProt P43354).
T4 construct: the activity of full-length human Nurr1 in cellular settings; host or cells: HEK293T
T4 sequence (P43354 whole entry, one chain of several): as the sequence (P43354 whole entry) above
Description: Full-length Nurr1 reporter gene assay on DR5 response element. The class given is cell-based. The conditions noted are these: full-length human Nurr1 and RXRα overexpressed; HEK293T; mean ± SD.

The next experiment has as its target T5, Nurr1 LBD homodimer (Homo sapiens, UniProt P43354).
T5 construct: Nurr1 (uniprot entry: P43354-1, residues 364–598); MBP-Asn10 linker (N, cleaved yes); His8-Tag (N, cleaved yes); His10-Tag (N, cleaved yes); made in house; host or cells: E. coli T7 express (with pGro7)
Description: Nurr1 homodimerization HTRF (GFP-Nurr1 LBD vs Tb-labeled Nurr1 LBD). The class given is biochemical. The conditions noted are these: cell-free; ligand 100 µM.

The next experiment concerns the target T6, Nurr1–NCoR-1 interaction (Homo sapiens, UniProt P43354).
T6 construct: Nurr1 (uniprot entry: P43354-1, residues 364–598); His10-Tag (N, cleaved yes); made in house; host or cells: E. coli T7 express (with pGro7)
Description: Nurr1–NCoR-1 interaction HTRF (GFP-Nurr1 LBD titrated against Tb-labeled NCoR-1). The following applies: cell-free; ligand fixed at 100 µM. The class given is biochemical.

Experiment [3] has as its system Nurr1. Also noted: method as in PMID 26124091. The conditions noted are these: cited from earlier work.

“Also recorded” adds a separate entry of the source.

T6 sequence (P43354 364-598): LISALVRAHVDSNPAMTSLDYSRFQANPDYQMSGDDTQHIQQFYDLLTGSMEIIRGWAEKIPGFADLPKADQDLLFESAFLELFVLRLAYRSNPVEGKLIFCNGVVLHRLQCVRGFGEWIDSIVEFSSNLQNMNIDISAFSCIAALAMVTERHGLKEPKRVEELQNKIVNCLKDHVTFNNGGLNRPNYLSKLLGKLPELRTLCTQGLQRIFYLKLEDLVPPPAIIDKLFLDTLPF
T5 sequence (P43354 364-598): as above
T1 sequence (P43354 360-598): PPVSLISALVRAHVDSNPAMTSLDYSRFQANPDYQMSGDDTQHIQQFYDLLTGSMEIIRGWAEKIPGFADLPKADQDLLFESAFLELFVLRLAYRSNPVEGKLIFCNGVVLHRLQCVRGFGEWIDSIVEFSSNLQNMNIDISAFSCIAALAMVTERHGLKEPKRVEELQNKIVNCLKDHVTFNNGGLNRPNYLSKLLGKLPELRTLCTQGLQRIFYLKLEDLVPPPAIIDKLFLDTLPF
T3 sequence (P43354 whole entry): as the sequence (P43354 whole entry) above
Description for Nurr1 LBD homodimer: Strength and modulation of the formation of the heterodimer composed of the LBDs of Nurr1 and RXRα was investigated by titration of GFP-RXRα LBD against a fixed concentration of Nurr1 LBD. Assay solutions were prepared in HTRF assay buffer supplemented with 0.1% (w/v) CHAPS as well as 1% DMSO with test compounds at 100 µM or DMSO alone as negative control. […] Free GFP was added to keep the total GFP content stable at 4 µM throughout the entire series in order to suppress artefacts from changes in degree of diffusion enhanced FRET. Samples were equilibrated at RT for 2 h before FI520 and FI620 were recorded after excitation at 340 nm, and the HTRF signal was calculated as described above.
Description for Nurr1–NCoR-1 interaction: Since ligand concentration was fixed in this setting, interference with the HTRF system is less prone to generate potential artifacts.
To maintain a constant GFP concentration, free GFP protein was added to the dilution series. The experiments were performed in HTRF assay buffer (150 mM KF, 25 mM HEPES pH 7.5 (KOH), 5% (w/v) Glycerol, supplemented with 0.1% (w/v) CHAPS and 5 mM DTT) with 1% DMSO in an assay volume of 20 µl. After 1 h incubation at RT, fluorescence intensities after excitation at 340 nm were recorded at 520 nm for GFP acceptor fluorescence and 620 nm for Tb-SA donor fluorescence and the HTRF signal was calculated as described above.

Turning to `CCN(CC)Cc1cc(Nc2ccnc3cc(Cl)ccc23)ccc1O` [AQ, amodiaquine], the EC50 stood at 36 µM on Nurr1 [1], 92 µM at NBRE: Nurr1 monomer, 87 µM on NurRE: Nurr1 homodimer and 97 µM in experiment [2]. The “Homodimerization (effect of ligand)” value on Nurr1 LBD homodimer is “promoted homodimerization; also recorded: Promotes dimerization”. Further, the “NCoR-1 affinity (effect of ligand)” value on Nurr1–NCoR-1 interaction is on record as “promoted the Nurr1–NCoR-1 interaction; also recorded: Enhances affinity”. Also, the Nurr1 activation efficacy with Nurr1 [3] is listed as ~ 3 fold.

These data come from paper PMC9814838, “The orphan nuclear receptor Nurr1 is responsive to non-steroidal anti-inflammatory drugs” (Communications Chemistry, 2020).
